Data set [1] concerns the target T1, HCV NS3/4A protease complex, BMS strain (UniProt P27958, species not given/STRAIN_BMS).
T1 construct: said of H77 and J4L6S, not expressly of BMS; These are given for the H77 and J4L6S constructs only
Briefly: FRET peptide assay to monitor HCV NS3/4A proteolytic activity (BMS strain). It is filed as biochemical, HCV genotype 1a. Conditions: NS3/4A BMS strain; read-out: IC50 Activity Range. The text has this:
HCV NS3 protease complexes, derived from the BMS strain, H77 strain or J4L6S strain, were generated, as described below. These purified recombinant proteins were generated for use in a homogeneous assay (see below) to provide an indication of how effective compounds of the present disclosure would be in inhibiting HCV NS3 proteolytic activity.
Serum from an HCV-infected patient was obtained from Dr. T. Wright, San Francisco Hospital. An engineered full-length cDNA (compliment deoxyribonucleic acid) template of the HCV genome (BMS strain) was constructed from DNA fragments obtained by reverse transcription-PCR (RT-PCR) of serum RNA (ribonucleic acid) and using primers selected on the basis of homology between other genotype 1a strains. From the determination of the entire genome sequence, a genotype 1a was assigned to the HCV isolate according to the classification of Simmonds et al. (See P Simmonds, K A Rose, S Graham, S W Chan, F McOmish, B C Dow, E A Follett, P L Yap and H Marsden, J. Clin. Microbiol., 31(6), 1493-1503 (1993)). […] The infectious clones, H77 (1a genotype) and J4L6S (1b genotype) were obtained from R. Purcell (NIH) and the sequences are published in Genbank (AAB67036, see Yanagi, M., Purcell, R. H., Emerson, S. U. and Bukh, J. Proc. Natl. Acad. Sci. U.S.A. 94(16),8738-8743 (1997); AF054247, see Yanagi, M., St Claire, M., Shapiro, M., Emerson, S. U., Purcell, R. H. and Bukh, J, Virology 244 (1), 161-172. (1998)).
NS3/4A protease complex-containing fractions were pooled and loaded on a desalting column Superdex-S200 pre-equilibrated with buffer D (25 mM HEPES, pH 7.5, 20% glycerol, 300 mM NaCl, 0.2% Triton X-100, 10 mM βME). Sample was loaded at a flow rate of 1 mL/min. NS3/4A protease complex-containing fractions were pooled and concentrated to approximately 0.5 mg/ml. The purity of the NS3/4A protease complexes, derived from the BMS, H77 and J4L6S strains, were judged to be greater than 90% by SDS-PAGE and mass spectrometry analyses. The enzyme was stored at −80° C., thawed on ice and diluted prior to use in assay buffer.
The purpose of this in vitro assay was to measure the inhibition of HCV NS3 protease complexes, derived from the BMS strain, H77 strain or J4L6S strain, as described above, by compounds of the present disclosure. This assay provides an indication of how effective compounds of the present disclosure would be in inhibiting HCV NS3 proteolytic activity.
In order to monitor HCV NS3/4A protease activity, an NS3/4A peptide substrate was used. The substrate was RET SI (Resonance Energy Transfer Depsipeptide Substrate; AnaSpec, Inc. cat #22991) (FRET peptide), described by Taliani et al. in Anal. Biochem. 240(2):60-67 (1996). […] The peptide also contains a fluorescence donor, EDANS, near one end of the peptide and an acceptor, DABCYL, near the other end. The fluorescence of the peptide is quenched by […] resonance energy transfer (RET) between the donor and the acceptor, but as the NS3 protease cleaves the peptide the products are released from RET quenching and the fluorescence of the donor becomes apparent.
The peptide substrate was incubated with one of the three recombinant NS3/4A protease complexes, in the absence or presence of a compound of the present disclosure. The inhibitory effects of a compound was determined by monitoring the formation of fluorescent reaction product in real time using a Cytofluor Series 4000. […]

Data set [2] deals with HCV replicon in HUH-7 cells. As to the kind of experiment: HCV replicon FRET assay. Type of data set: cell-based, HCV strain 1b. Conditions: Hepatitis C virus, Huh-7; HCV replicon; which replicon assay not stated; read-out: EC50 Activity Range. The text has this:
An HCV replicon whole cell system was established as described by Lohmann V, Korner F, Koch J, Herian U, Theilmann L, Bartenschlager R., Science 285(5424):110-3 (1999). This system enabled us to evaluate the effects of our HCV Protease compounds on HCV RNA replication. Briefly, using the HCV strain 1b sequence described in the Lohmann paper (Assession number: AJ238799), an HCV cDNA was synthesized by Operon Technologies, Inc. (Alameda, Calif.), and the full-length replicon was then assembled in plasmid pGem9zf(+) (Promega, Madison, Wis.) using standard molecular biology techniques. The replicon consists of (i) the HCV 5′ UTR fused to the first 12 amino acids of the capsid protein, (ii) the neomycin phosphotransferase gene (neo), (iii) the IRES from encephalomyocarditis virus (EMCV), and (iv) HCV NS3 to NS5B genes and the HCV 3′ UTR. Plasmid DNAs were linearized with ScaI and RNA transcripts were synthesized in vitro using the T7 MegaScript transcription kit (Ambion, Austin, Tex.) according to manufacturer's directions. In vitro transcripts of the cDNA were transfected into the human hepatoma cell line, HUH-7. […] Resulting cell lines were characterized for positive and negative strand RNA production and protein production over time.
The HCV replicon FRET assay was developed to monitor the inhibitory effects of compounds described in the disclosure on HCV viral replication. HUH-7 cells, constitutively expressing the HCV replicon, were grown in Dulbecco's Modified Eagle Media (DMEM) (Gibco-BRL) containing 10% Fetal calf serum (FCS) (Sigma) and 1 mg/ml G418 (Gibco-BRL). Cells were seeded the night before (1.5×10^4 cells/well) in 96-well tissue-culture sterile plates. Compound and no compound controls were prepared in DMEM containing 4% FCS, 1:100 Penicillin/Streptomysin (Gibco-BRL), 1:100 L-glutamine and 5% DMSO in the dilution plate (0.5% DMSO final concentration in the assay). Compound/DMSO mixes were added to the cells and incubated for 4 days at 37° C. After 4 days, cells were first assessed for cytotoxicity using alamar Blue (Trek Diagnotstic Systems) for a CC50 reading. The toxicity of compound (CC50) was determined by adding 1/10th volume of alamar Blue to the media incubating the cells. After 4 hours, the fluorescence signal from each well was read, with an excitation wavelength at 530 nm and an emission wavelength of 580 nm, using the Cytofluor Series 4000 (Perspective Biosystems). Plates were then rinsed thoroughly with Phosphate-Buffered Saline (PBS) (3 times 150 μl). The cells were lysed with 25 μl of a lysis assay reagent containing an HCV protease substrate (5× cell Luciferase cell culture lysis reagent (Promega #E153A) diluted to 1× with distilled water, NaCl added to 150 mM final, the FRET peptide substrate (as described for the enzyme assay above) diluted to 10 μM final from a 2 mM stock in 100% DMSO. […]. The plate was then placed into the Cytofluor 4000 instrument which had been set to 340 nm excitation/490 nm emission, automatic mode for 21 cycles and the plate read in a kinetic mode. EC50 determinations were carried out as described for the IC50 determinations.

This note sets out measurements from US20080107623A1, “Inhibitors of Hepatitis C Virus” (Bristol-Myers Squibb Company, priority 2006, published 2008).

T1 sequence (P27958 1027-1657, change not shown, one chain of several): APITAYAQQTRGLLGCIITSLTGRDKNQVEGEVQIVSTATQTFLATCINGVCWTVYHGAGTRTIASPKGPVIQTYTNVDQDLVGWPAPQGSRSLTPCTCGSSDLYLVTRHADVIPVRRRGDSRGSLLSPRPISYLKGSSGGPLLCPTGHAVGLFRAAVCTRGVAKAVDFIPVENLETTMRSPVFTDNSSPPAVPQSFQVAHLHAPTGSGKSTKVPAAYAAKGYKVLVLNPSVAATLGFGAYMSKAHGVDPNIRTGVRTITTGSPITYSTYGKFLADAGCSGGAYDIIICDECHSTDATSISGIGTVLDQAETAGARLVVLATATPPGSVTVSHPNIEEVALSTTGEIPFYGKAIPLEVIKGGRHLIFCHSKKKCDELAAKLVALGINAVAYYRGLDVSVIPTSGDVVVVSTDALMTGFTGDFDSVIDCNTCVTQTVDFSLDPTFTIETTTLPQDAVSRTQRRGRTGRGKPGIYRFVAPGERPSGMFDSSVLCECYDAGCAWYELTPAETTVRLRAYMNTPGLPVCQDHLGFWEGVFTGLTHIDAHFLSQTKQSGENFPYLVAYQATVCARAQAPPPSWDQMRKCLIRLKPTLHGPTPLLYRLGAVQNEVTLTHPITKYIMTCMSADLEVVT

Compound `CC(C)(C)OC(=O)N[C@H]1CCCOC/C=C\[C@@H]2C[C@@]2(C(=O)NS(=O)(=O)C2CC2)NC(=O)[C@@H]2C[C@@H](OCc3ccccc3)CN2C1=O` [Compound 5, (1S,4R,6S,14S,18R,7-cis)-18-benzyloxy-14-tert-butoxycarbonylamino-4-cyclopropanesulfonylaminocarbonyl-2,15-dioxo-3,16-diaza-10-oxatricyclo[14.3.0.0^4,6]nonadec-7-ene] yielded a melting point of 147 to 149 °C. In addition, the IC50 in data set [1] is under 100 nM. In data set [2], the EC50 was over 1000 nM.
Turning to `CC(C)(C)OC(=O)N[C@H]1CCCOC/C=C\[C@@H]2C[C@@]2(C(=O)NS(=O)(=O)C2CC2)NC(=O)[C@@H]2C[C@@H](OC(C)(C)C)CN2C1=O` [Compound 6, (1S,4R,6S,14S,18R,7-cis)-18-tert-butoxy-14-tert-butoxycarbonylamino-4-cyclopropanesulfonylaminocarbonyl-2,15-dioxo-3,16-diaza-10-oxatricyclo[14.3.0.0^4,6]nonadec-7-ene], the IC50 in data set [1] lay within 100 to 1000 nM. The 50% effective concentration (EC50) in data set [2] is over 1000 nM.
As for `CC(C)(C)OC(=O)N[C@H]1CCCCC/C=C\[C@@H]2C[C@@]2(C(=O)NS(=O)(=O)C2CC2)NC(=O)[C@@H]2C[C@@H](Oc3ccccn3)CN2C1=O` [Compound 1], the concentration for half-maximal inhibition (IC50) in data set [1] was under 100 nM. Further, the concentration giving a half-maximal response (EC50) in data set [2] was 100 to 1000 nM.
As to `CC(C)(C)OC(=O)N[C@H]1CCCCC/C=C\[C@@H]2C[C@@]2(C(=O)NS(=O)(=O)C2CC2)NC(=O)[C@@H]2C[C@@H](Oc3ccc([N+](=O)[O-])cc3)CN2C1=O` [Compound 2], the half-maximal inhibitory concentration (IC50) in data set [1] is under 100 nM. In addition, in data set [2], the half-maximal effective concentration (EC50) is over 1000 nM.
